Assay results taken from US6436917B1, “Non-estrogenic estradiol derivative compounds with anti-oxidative activity” (Jenapharm GmbH & Co. KG, priority 1997, dated 2002).

Legend:
[1] = Fe(III) reduction assay (stimulation of Fe(III) reduction); format: biochemical; details: 25 μM Fe(III) chloride, tris-HCl pH 7.4; test concentration not given
Text: The testing of the substances for their ability to stimulate Fe(III) reduction occurs according to B. Ruiz Larrea, et al, “Antioxidant effects of estradiol and 2-hydroxyestradiol on iron-induced lipid peroxidation of rat liver microsomes”, Steroids 39 (1994), p. 383-388 and B. Ruiz-Larrea, et al, Effects of estrogens on the redox chemistry of iron: A possible mechanism of the antioxidant action of estrogens”, Steroids 60 (1995), pp. 780 to 783.
The biological sample contained the following components: 25 μM Fe(III) chloride in 150 mM tris-HCl (pH=7.4), 15 mM 1,10-phenanthrolene and the substance to be tested, dissolved in an ethanol vehicle. The formation of the Fe(II) phenanthroline complex is registered spectrophotometrically at 510 nm.

[2] = Fe(II) oxidation assay (inhibition of Fe(II)-autooxidation); format: biochemical; details: for FE(II)-AUTOXIDATION Inhibition, %: synaptosomal membrane/lipid fractions, 50 μM Fe(II) sulfate, pH 7.4, 10 min at 37° C., test concentration not given
Text: The testing of the substances for Fe(II)-autooxidation inhibition activity occurs according to B. Ruiz-Larrea, et al, “Antioxidant effects of estradiol and 2-hydroxyestradiol on iron-induced lipid peroxidation of rat liver microsomes”, Steroids 39 (1994), pp. 383-388 and B. Ruiz-Larrea, et al, Effects of estrogens on the redox chemistry of iron: “A possible mechanism of the antioxidant action of estrogens”, Steroids 60 (1995), pp. 780-783.
All autooxidation experiments involving the Fe(II) ions were performed in aqueous solutions, which contain synaptosomal membrane/lipid fractions. A 1.0 ml biological sample containing 50 μM Fe(II) sulfate, 45 mM tris-HCl buffer (pH=7.4) and 0.08 mg of synaptosomal proteins were incubated with test substances dissolved in ethanol (10% v/v) for 10 min in a water bath at 37° C., subsequently stopped by addition of 50 μL of a 0.32 M 1,10-phenanthrolene solution and the extinction of Fe(II) phenanthroline complexes at 510 nm was measured.
All other biochemicals are of the highest analytical grade of purity. The test substances are preferably made in the form of a 20 millimolar stock solution in 95% ethanol and diluted immediately prior to the start of the experiment.

[3] = system: vaginal epithelium of ovariectomized rats; test: Allen-Doisy test, estrogenicity in vivo in ovariectomized rats (vaginal smears); design: species or system rat; details: one-time subcutaneous administration d1, ovariectomized rats
Protocol: Estrogens lead to characteristic changes in vaginal epithelium in ovariectomized rodents. The upper cells become heavily cornified and a strong proliferation occurs. These changes in cell formation were determined by vaginal smears. The occurrence of cornified anuclear epithelial cells is an expression of estrogen-specific activity (Allen-Doisy Test).
Subcutaneous Testing for Estrogen Activity
Estrogens lead to characteristic changes in vaginal epithelium with ovariectomized rodents. Strong proliferation and cornification of the upper cell layer occurs. These changes are detectable in cells from vaginal smears. The occurrence of cornified anuclear epithelial cells is an expression of an estrogen-specific activity—i.e. the Allen-Doisy Test—according to R. J. Dorfman, (Hrsg.), Methods in Hormone Research, p. 72 ff, Academic Press, New York, 1969.
White Wistar Rats (origin: Shoe: WIST=Mol : WIST, n=48) that weighed from 180 to 200 g were supplied, divided randomly into trial groups (n=3 to 5 animals/group), habituated in supporting conditions for about one week and subsequently ovariectomized under anesthesia with ursotami.
The test substances for subcutaneous and oral administration were formulated in benzyl benzoate/castor oil (1+4) or in polyoxyethylene(50-stearate) by Myrj® (85 mg polyoxyethylene(50-stearate) in 100 ml 0.9% w/v sodium chloride solution).
The administered volume amounted to 0.2 ml/animal.
Rats with a weight of about 200 g were ovariectomized under anesthesia with ursotami and about 2 weeks after that the animal was tested in the presence of a castrated vaginal cell formation (dioestrus). After that 0.2 ml per animal of the test substance was administered once subcutaneously. Vaginal smears were taken 24, 48, 54 and 72 hours after the one-time administration of the test substance and subsequent oestrus stages were evaluated(dioestrus=1; proestrus=2; oestrus=3; metoestrus=4). The experiment was ended after four days according to the standard ALLEN-DOISY test. The animals were sacrificed under anesthesia in ether by dislocation of the neck vertebral column, the uterus was prepared and its moist weight (without secretion) was measured. The suprarenal capsules were also prepared and weighed.
The results of the colpotropic test—the occurrences of oestral vaginal cell forms as reagents per doses group and the uteropic activity(uterus weight) were measured. The average of the uterus weight of the test groups was compared with the average of the vehicular groups and, if necessary, the significance of the differences was determined by a t-test according to STUDENT. The moist weight of the suprarenal capsules of all groups was also determined.

[4] = system: Synaptosomal membrane fractions (rat); details: for IC50: read-out: LIPID PEROXIDATION INHIBITION (IC50 μMol/l), synaptosomal membrane fractions (rat), 30 min at 37° C.; for antioxidative action in lipid peroxidation (in words): compared with 17α-estradiol and 17β-estradiol
estrogen receptor [5] = biological target: T1, estrogen receptor (Homo sapiens, UniProt P03372); test: Relative binding affinity to estrogen receptor sites; details: relative to 17β-estradiol = 100
T1 sequence (P03372 1-595): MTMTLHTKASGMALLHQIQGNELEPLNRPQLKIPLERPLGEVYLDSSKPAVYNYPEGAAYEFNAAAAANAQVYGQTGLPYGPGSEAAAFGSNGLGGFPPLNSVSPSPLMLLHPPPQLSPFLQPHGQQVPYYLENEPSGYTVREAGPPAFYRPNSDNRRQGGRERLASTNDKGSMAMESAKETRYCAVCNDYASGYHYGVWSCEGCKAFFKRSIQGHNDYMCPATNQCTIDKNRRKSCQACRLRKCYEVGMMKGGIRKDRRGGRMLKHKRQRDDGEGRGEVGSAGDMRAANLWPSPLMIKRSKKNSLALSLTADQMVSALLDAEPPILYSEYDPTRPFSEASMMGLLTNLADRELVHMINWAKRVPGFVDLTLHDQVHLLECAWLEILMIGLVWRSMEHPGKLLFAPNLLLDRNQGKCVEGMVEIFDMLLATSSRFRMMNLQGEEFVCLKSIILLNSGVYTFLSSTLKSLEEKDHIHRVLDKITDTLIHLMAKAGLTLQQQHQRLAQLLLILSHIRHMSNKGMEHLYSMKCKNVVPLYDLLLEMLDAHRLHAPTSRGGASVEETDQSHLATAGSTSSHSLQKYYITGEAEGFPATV

estrogen receptor [6] = biological target: T1, estrogen receptor; details: background; natural 17β-estradiol = 100%; cited from earlier work
[7] = background statement; cited from earlier work

| SMILES | FE(III)-REDUCTION Stimulation, % [1] | FE(II)-AUTOXIDATION Inhibition, % [2] | IC50 [4] | effect on the Fe(II)-autooxidation process (in words) [2] | further results |
| --- | --- | --- | --- | --- | --- |
| C[C@]12CC[C@@H]3c4cc(O)c(O)cc4CC[C@H]3[C@@H]1CC[C@@H]2O [2-hydroxy-17β-estradiol] | 35.26% | 64.20% |  |  |  |
| C[C@]12CC[C@@H]3c4ccc(O)c(O)c4CC[C@H]3[C@@H]1CC[C@H]2O [4-hydroxy-17α-estradiol] | 32.71% | 59.51% |  |  |  |
| C[C@]12CC[C@@H]3c4ccc(O)cc4CC[C@H]3[C@@H]1CC[C@H]2O [17α-estradiol] | ≦1% | ≦1% | 8.9 µmol/L | do not or do not substantial change | Allen-Doisy Test, flaking, d1-d4 vaginal scale stage 3 (reagent/group) ([3]; 10 μg/animal): 0/6; Allen-Doisy Test, flaking, d1-d4 vaginal scale stage 3 (reagent/group) ([3]; 100 μg/animal): 6/6 |
| C[C@]12CC[C@@H]3c4ccc(O)cc4CC[C@H]3[C@@H]1CC[C@@H]2O [17β-estradiol] | ≦1% | ≦1% | 12.4 µmol/L | do not or do not substantial change | Allen-Doisy Test, flaking, d1-d4 vaginal scale stage 3 (reagent/group) ([3]; 0.03 μg/animal): 1/5; Allen-Doisy Test, flaking, d1-d4 vaginal scale stage 3 (reagent/group) ([3]; 0.1 μg/animal): 5/5 |
| CN(C)c1ccc(CC2(O)CCC3C4CCc5cc(O)ccc5C4=CCC32C)cc1 (stereo not drawn) [J 844, 17α-4′-dimethylamino-phenylmethyl-estra-1,3,5(10),9(11)-tetraen-3,17-diol] |  |  |  |  | relative binding affinity (% binding to estrogen receptor) (estrogen receptor [5]): 0.7%; binding affinity to estrogen receptor sites (estrogen receptor [6]): less than 1% |
| COc1ccc2c(c1)CC[C@@H]1[C@@H]2CC[C@@]2(C)[C@H]1CC[C@@]2(O)Cc1ccc(N(C)C)cc1 [J 848, 3-methoxy-17α-4′-dimethylamino-phenylmethyl-estra-1,3,5(10)-trien-17-ol] |  |  |  |  | Allen-Doisy Test, flaking, d1-d4 vaginal scale stage 3 (reagent/group) ([3]; 30 μg/animal): 0/5; Allen-Doisy Test, flaking, d1-d4 vaginal scale stage 3 (reagent/group) ([3]; 300 μg/animal): 2/5; estrogen activity in vivo [7]: high estrogen activity |
| C[C@]12CC[C@H]3c4ccc(O)cc4CC[C@@H]3[C@H]1CC[C@H]2O [J 855, 8α, 9β, 14β-estra-1,3,5(10)-trien-3,17α-diol] |  |  |  |  | Allen-Doisy Test, flaking, d1-d4 vaginal scale stage 3 (reagent/group) ([3]; 1000 μg/animal): 5/5; Allen-Doisy Test, flaking, d1-d4 vaginal scale stage 3 (reagent/group) ([3]; 10000 μg/animal): 5/5 |
| Cc1ccc(O)c2c1CC[C@@H]1[C@@H]2CC[C@]2(C)[C@@H](O)CC[C@@H]12 [J 1178, 4-methyl-estra-1,3,5(10)-trien-1,17β-diol] | 19.23% | 22.26% | 1.7 µmol/L | have the ability to inhibit the Fe(II)-autooxidation process | Allen-Doisy Test, flaking, d1-d4 vaginal scale stage 3 (reagent/group) ([3]; 1000 μg/animal): 0/5; Allen-Doisy Test, flaking, d1-d4 vaginal scale stage 3 (reagent/group) ([3]; 10000 μg/animal): 1/5; relative binding affinity (% binding to estrogen receptor) (estrogen receptor [5]): 0.04%; antioxidative action in lipid peroxidation (in words) [4]: considerably stronger antioxidative action |
| Cc1ccc(O)c2c1CC[C@@H]1[C@@H]2CC[C@]2(C)[C@H](O)CC[C@@H]12 [J 1179, 4-methyl-estra-1,3,5(10)-trien-1,17α-diol] | 21.41% | 26.07% | 1.94 µmol/L | have the ability to inhibit the Fe(II)-autooxidation process | Allen-Doisy Test, flaking, d1-d4 vaginal scale stage 3 (reagent/group) ([3]; 10000 μg/animal): 0/5; relative binding affinity (% binding to estrogen receptor) (estrogen receptor [5]): <0.03%; antioxidative action in lipid peroxidation (in words) [4]: considerably stronger antioxidative action |
| Cc1cc(C(C)(C)C)c(O)c(C(C)(C)C)c1 [butyrohydroxytoluene (BHT), butyrohydroxytoluene] |  |  | 0.95 µmol/L |  |  |
| Cc1c(C)c2c(c(C)c1O)CC[C@@](C)(CCC[C@H](C)CCC[C@H](C)CCCC(C)C)O2 [α-tocopherol (Vitamin E), α-tocopherol] |  |  | 117 µmol/L |  |  |
